According to patent publication US20260234147A1 (priority 2023, published 2026):
Like-named read-outs stand apart in the source and are kept apart here.

Experiments:
hMOR = hMOR (Homo sapiens, UniProt P35372); assay: Radioligand binding assay (Eurofins Cerep), [3H]DAMGO displacement
hDOR = hDOR (Homo sapiens, UniProt P41143); assay: Radioligand binding assay (Eurofins Cerep), [3H]DADLE displacement
hKOR = hKOR (Homo sapiens, UniProt P41145); assay: Radioligand binding assay (Eurofins Cerep), [3H]U69,593 displacement
Chain of hKOR (P41145 whole entry): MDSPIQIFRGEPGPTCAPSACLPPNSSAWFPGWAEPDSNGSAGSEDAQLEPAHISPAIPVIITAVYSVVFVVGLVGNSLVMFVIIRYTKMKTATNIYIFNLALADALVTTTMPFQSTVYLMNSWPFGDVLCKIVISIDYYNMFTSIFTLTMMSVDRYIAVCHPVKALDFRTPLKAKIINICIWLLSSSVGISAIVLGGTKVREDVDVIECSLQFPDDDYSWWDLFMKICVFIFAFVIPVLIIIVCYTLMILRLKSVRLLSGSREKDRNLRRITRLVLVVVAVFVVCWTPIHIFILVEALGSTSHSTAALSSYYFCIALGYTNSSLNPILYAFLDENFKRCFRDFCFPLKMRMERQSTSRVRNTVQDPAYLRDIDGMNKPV

α2A adrenergic receptor = biological target: T1, α2A adrenergic receptor (Homo sapiens, UniProt P08913); assay: Radioligand binding assay (Eurofins Cerep), [3H]RX 821002 displacement
T1 construct: Eurofins Cerep (contract screening)
T1 sequence (P08913 1-465): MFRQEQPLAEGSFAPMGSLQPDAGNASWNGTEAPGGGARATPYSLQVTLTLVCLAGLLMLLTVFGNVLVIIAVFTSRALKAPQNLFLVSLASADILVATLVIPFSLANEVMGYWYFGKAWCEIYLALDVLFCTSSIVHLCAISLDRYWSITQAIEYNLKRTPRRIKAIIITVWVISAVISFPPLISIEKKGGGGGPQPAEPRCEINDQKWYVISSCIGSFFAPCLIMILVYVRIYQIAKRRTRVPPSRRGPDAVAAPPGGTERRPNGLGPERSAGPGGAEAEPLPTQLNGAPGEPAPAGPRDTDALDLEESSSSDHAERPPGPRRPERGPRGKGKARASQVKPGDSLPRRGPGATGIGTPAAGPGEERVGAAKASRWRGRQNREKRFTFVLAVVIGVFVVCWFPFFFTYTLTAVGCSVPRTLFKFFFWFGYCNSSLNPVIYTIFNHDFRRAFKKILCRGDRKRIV

[1] = Table 3-2, 3 independent experiments, read-out: Ki (nM ± SEM) MOR
[2] = Table 3-2, 3 independent experiments, read-out: Ki (nM ± SEM) DOR
[3] = Table 3-2, 3 independent experiments, read-out: Ki (nM ± SEM) KOR
[4] = Ki (nM ± SEM) a2A-AR, Table 3-2, 3 independent experiments
[5] = Table A4, data summary #2, read-out: MOR Ki ± SEM
[6] = Table A4, data summary #2, read-out: DOR Ki ± SEM
[7] = Table 3-3, 3 independent experiments, read-out: Ki (nM ± SEM) MOR
[8] = Table 3-3, 3 independent experiments, read-out: Ki (nM ± SEM) DOR
[9] = Table 3-3, 3 independent experiments, read-out: Ki (nM ± SEM) KOR
[10] = Table 3-3, 3 independent experiments, read-out: Ki (nM ± SEM) a2A-AR
[11] = Table 3-5, 3 independent experiments, read-out: Ki (nM ± SEM) MOR
[12] = Table 3-5, 3 independent experiments, read-out: Ki (nM ± SEM) DOR
[13] = Table 3-5, 3 independent experiments, read-out: Ki (nM ± SEM) KOR
[14] = Table 3-5, 3 independent experiments, read-out: Ki (nM ± SEM) a2A-ar
[15] = Table B1′, read-out: MOR Ki ± SEM
[16] = Table B1′, read-out: DOR Ki ± SEM
[17] = Table B1′, read-out: KOR Ki ± SEM
[18] = alpha2A Ki ± SEM (nM), Table B1′

Chain of hDOR (P41143 whole entry): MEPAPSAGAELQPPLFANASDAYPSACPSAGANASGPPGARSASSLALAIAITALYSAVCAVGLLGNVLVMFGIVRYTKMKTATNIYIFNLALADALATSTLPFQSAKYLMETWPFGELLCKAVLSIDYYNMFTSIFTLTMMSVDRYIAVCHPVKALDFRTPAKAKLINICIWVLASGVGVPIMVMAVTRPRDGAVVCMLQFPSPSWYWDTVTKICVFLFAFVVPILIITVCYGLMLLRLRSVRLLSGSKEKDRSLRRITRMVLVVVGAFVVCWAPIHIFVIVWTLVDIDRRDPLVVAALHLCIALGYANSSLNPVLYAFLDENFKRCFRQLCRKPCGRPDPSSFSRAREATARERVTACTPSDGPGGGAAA
Chain of hMOR (P35372 whole entry): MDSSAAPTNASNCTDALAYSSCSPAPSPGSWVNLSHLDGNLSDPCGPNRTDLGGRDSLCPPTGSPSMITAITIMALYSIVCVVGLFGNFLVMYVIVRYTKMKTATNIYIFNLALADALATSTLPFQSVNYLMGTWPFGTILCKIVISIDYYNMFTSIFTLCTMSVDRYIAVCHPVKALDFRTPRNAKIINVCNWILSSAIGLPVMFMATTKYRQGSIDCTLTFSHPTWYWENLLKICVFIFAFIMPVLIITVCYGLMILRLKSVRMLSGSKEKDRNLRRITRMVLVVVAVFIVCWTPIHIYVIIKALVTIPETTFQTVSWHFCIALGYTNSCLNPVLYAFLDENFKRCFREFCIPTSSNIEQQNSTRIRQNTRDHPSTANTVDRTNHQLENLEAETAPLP

Compound: COC(=O)CC1CCN(CCc2c[nH]c3cc(OC)ccc23)CC1 [Compound 3-40]
- Ki (hMOR; [1]): > 10000 nM
- Ki (hDOR; [2]): > 10000 nM
- Ki (hKOR; [3]): > 10000 nM
- Ki (α2A adrenergic receptor; [4]): 2840 ± 599 nM

Compound: CC[C@@H]1CN2CCc3c([nH]c4cccc(OC)c34)[C@@H]2C[C@@H]1/C(=C\OC)C(=O)NCc1ccccc1 [SUSM-560]
- Ki (hMOR; [5]): 5320 ± 800 nM
- Ki (hDOR; [6]): > 10000 nM

Compound: COC(=O)CC1CCN(CC(=O)N2CCc3c(OC)cccc32)CC1 [Compound 3-46]
- Ki (hMOR; [7]): > 10000 nM
- Ki (hDOR; [8]): > 10000 nM
- Ki (hKOR; [9]): > 10000 nM
- Ki (α2A adrenergic receptor; [10]): 6370 ± 1160 nM

Compound: COC(=O)CC1CCN(CC(=O)c2c[nH]c3cccc(OC)c23)CC1 [Compound 3-63]
- Ki (hMOR; [11]): > 10000 nM
- Ki (hDOR; [12]): > 10000 nM
- Ki (hKOR; [13]): > 10000 nM
- Ki (α2A adrenergic receptor; [14]): 6370 ± 1160 nM

Compound: COC=C(C(=O)OC)C1CCN(CCc2c[nH]c3c(OC)cccc23)CC1 [Compound 3-41]
- SR: Selectivity Ratio (KiMOR/Kiα2A) (hMOR; Table 3-2): 1.04
- Ki (hMOR; [1]): 5130 ± 8.35 nM
- Ki (hDOR; [2]): > 10000 nM
- Ki (hKOR; [3]): > 10000 nM
- Ki (α2A adrenergic receptor; [4]): 4900 ± 829 nM

Compound: COC(=O)CC1CCN2CC=C(c3ccccc3)CC2C1 (centres unmarked)
- Ki (hMOR; [15]): 6980 ± 1450 nM
- Ki (hDOR; [16]): > 10000 nM
- Ki (hKOR; [17]): 957 ± 188 nM
- Ki (α2A adrenergic receptor; Table B1′, read-out: alpha2A Ki ± SEM): 7 ± 2 nM

Compound: COC(=O)CC1CCN2CCC(O)(c3ccccc3)CC2C1 (centres unmarked) [drawing 173]
- Ki (hMOR; [15]): 8610 ± 2530 nM
- Ki (hDOR; [16]): > 10000 nM
- Ki (hKOR; [17]): 3600 ± 1080 nM
- Ki (α2A adrenergic receptor; [18]): 129 ± 49 nM

Compound: COC(=O)CC1CCN(CCc2cn(CCc3c[nH]c4ccccc34)c3ccccc23)CC1 [Compound 3-45]
- SR: Selectivity Ratio (KiMOR/Kiα2A) (hMOR; Table 3-3): 1.32
- Ki (hMOR; [7]): 9280 ± 1730 nM
- Ki (hDOR; [8]): > 10000 nM
- Ki (hKOR; [9]): > 10000 nM
- Ki (α2A adrenergic receptor; [10]): 7030 ± 2020 nM

Compound: COC=C(C(=O)OC)C1CCN(Cc2c[nH]c3ccccc23)CC1 [Compound 3-57]
- Ki (hMOR; [11]): > 10000 nM
- Ki (hDOR; [12]): > 10000 nM
- Ki (hKOR; [13]): > 10000 nM
- Ki (α2A adrenergic receptor; Ki (nM ± SEM) a2A-ar, Table 3-5, 3 independent experiments): 867 ± 370 nM

Compound: [2H]C([2H])([2H])N(C(=O)/C(=C/OC)[C@H]1C[C@H]2c3[nH]c4cccc(OC)c4c3CCN2C[C@H]1CC)C([2H])([2H])[2H] [SUSM-566]
- Ki (hMOR; [5]): 330 ± 28 nM
- Ki (hDOR; DOR Ki ± SEM (nM), Table A4, data summary #2): 8300 ± 3300 nM
- Ki (hKOR; Table A4, data summary #2, read-out: KOR Ki ± SEM): 1800 ± 251 nM
- Ki (α2A adrenergic receptor; Alpha2A Ki ± SEM (nM), Table A4, data summary #2): 1960 ± 535 nM

Compound: COC=C(C(=O)OC)C1CCN(CCc2c[nH]c3ccc(OC)cc23)CC1 [Compound 3-37]
- SR: Selectivity Ratio (KiMOR/Kiα2A) (hMOR; Table 3-2): 0.22
- Ki (hMOR; [1]): 733 ± 144 nM
- Ki (hDOR; [2]): > 10000 nM
- Ki (hKOR; [3]): 1300 ± 129 nM
- Ki (α2A adrenergic receptor; [4]): 3370 ± 586 nM

Compound: COC(=O)CC1CCN2CCC(O)(c3ccc(F)cc3)CC2C1 (centres unmarked)
- Ki (hMOR; [15]): 424 ± 203 nM
- Ki (hDOR; [16]): > 10000 nM
- Ki (hKOR; [17]): > 10000 nM
- Ki (α2A adrenergic receptor; [18]): 240 ± 63 nM

Compound: COCC(C(=O)OC)C1CCN(CCc2c[nH]c3ccccc23)CC1 (centres unmarked) [Compound 3-71]
- SR: Selectivity Ratio (KiMOR/Kiα2A) (hMOR; Table 3-6): 2.02
- Ki (hMOR; Table 3-6, 3 independent experiments, read-out: Ki (nM ± SEM) MOR): 5580 ± 1700 nM
- Ki (hDOR; Ki (nM ± SEM) DOR, Table 3-6, 3 independent experiments): > 10000 nM
- Ki (hKOR; Table 3-6, 3 independent experiments, read-out: Ki (nM ± SEM) KOR): > 10000 nM
- Ki (α2A adrenergic receptor; Ki (nM ± SEM) a2A-AR, Table 3-6, 3 independent experiments): 2760 ± 281 nM

Compound: COC(=O)C=C1CCN2CCC(O)(c3cccc(OC)c3)CC2C1 (centres unmarked) [drawing 179]
- Ki (hMOR; [15]): > 10000 nM
- Ki (hDOR; [16]): > 10000 nM
- Ki (hKOR; [17]): > 10000 nM
- Ki (α2A adrenergic receptor; [18]): 37 ± 3 nM

Compound: COC(=O)CC1CCN(Cc2c[nH]c3ccccc23)CC1 [Compound 3-58]
- SR: Selectivity Ratio (KiMOR/Kiα2A) (hMOR; Table 3-5): 0.78
- Ki (hMOR; [11]): 2700 ± 580 nM
- Ki (hDOR; [12]): > 10000 nM
- Ki (hKOR; [13]): 791 ± 216 nM
- Ki (α2A adrenergic receptor; [14]): 3460 ± 428 nM

Compound: COC(=O)CC1CCN2CCC(O)(c3ccccc3OC)CC2C1 (single isomer, unassigned)
- Ki (hMOR; [15]): > 10000 nM
- Ki (hDOR; [16]): > 10000 nM
- Ki (hKOR; [17]): > 10000 nM
- Ki (α2A adrenergic receptor; [18]): 3470 ± 1790 nM

Compound: CC[C@@H]1CN2CCc3c([nH]c4cccc(OC)c34)[C@@H]2C[C@@H]1/C(=C\OC)C(=O)N1CCSCC1 [SUSM-564]
- Ki (hMOR; [5]): 134 ± 32 nM
- Ki (hDOR; [6]): > 10000 nM

Compound: COC(=O)C=C1CCN2CCC(O)(c3ccccc3)CC2C1 (centres unmarked) [SG-01-053]
- Ki (hMOR; Table B2, mean ± SEM, 3 independent experiments, read-out: MOR Ki ± SEM): > 10000 nM
- Ki (α2A adrenergic receptor; Alpha2A Ki ± SEM (nM), Table B2, mean ± SEM, 3 independent experiments): 95 ± 35 nM
